Experimental data as given in US7749316B2, “Water-based inks for ink-jet printing” (Kao Corporation, priority 2006, dated 2010).

Columns and labels:
[1] = Surface tension of water containing nonionic organic compound; type: physicochemical; conditions: 0.001 g of compound in 100 g of water, 25° C.
Source text: The lower limit of the surface tension is preferably 40 mN/m or more.

[2] = Solubility of nonionic organic compound in water; conditions: for solubility in 100 g of water: in 100 g of water as measured at 25° C.; for Solubility of nonionic organic compound: saturated solubility in 100 g of water, 25° C.
Description: The solubility is expressed by a saturated solubility of the nonionic organic compound in 100 g of water. The stirring for the measurement was conducted within 1 h.

SMILES | Surface tension of water containing nonionic organic compound [1] | solubility in 100 g of water [2] | Solubility of nonionic organic compound [2] | Surface tension of water containing nonionic organic compound ([1]; listed as lauric acid monoglyceride)
CCCCCCCCC(O)CO (centres unmarked) [1,2-decanediol] | 55 mN/m | 0.055 g | – | –
CCCCCCC(O)CO (centres unmarked) [1,2-octanediol] | 65 mN/m | 0.20 g | – | –
CCCCC(CC)COCC(O)CO (centres unmarked) [2-ethylhexyl glyceryl ether] | 62 mN/m | 0.15 g | – | –
CCCCCCCCCC(=O)OCC(O)CO (centres unmarked) [decanoic acid monoglyceride] | 65 mN/m | – | – | –

Results, then the compound that gave them:

Surface tension of water containing nonionic organic compound [1] | solubility in 100 g of water [2] | Solubility of nonionic organic compound [2] | Surface tension of water containing nonionic organic compound ([1]; listed as lauric acid monoglyceride) | SMILES
47.1 mN/m | 0.001 g | 0.001 g/100 g | – | CCCCCCCCCCC(O)CO (centres unmarked) [PO-1, 1,2-Dodecanediol]
65 mN/m | 0.005 g | 0.15 g/100 g | 63 mN/m | CCCCCCCCCCCC(=O)OCC(O)CO (centres unmarked) [PO-2, Dodecanoic acid monoglyceride]
57.8 mN/m | 0.05 g | 0.05 g/100 g | – | CC(C)CCCCCCCOCC(O)CO (centres unmarked) [PO-3, Isodecyl monoglyceryl ether]
